Laboratory results as given in PMC12817916, “A small-molecule HSP90 inhibitor, NVP-HSP990, alleviates rotavirus infection” (Journal of Virology, 2025).

Test system: RV EDIM strain
Test: RV EDIM diarrhea model in suckling mice (treatment after diarrhea onset)
Type: in vivo, BALB/c suckling mice
Description: BALB/c mice were purchased from Gempharmatech Inc. (Suzhou, China) and housed under SPF conditions (22 ± 1°C, 12 h light/dark cycle). Suckling mice were obtained by mating male and female adult BALB/c mice (12- to 16-week-old). Only the 7-day-old BALB/c suckling mice with body weights ranging from 2.5 g to 4.5 g were selected for RV diarrhea models. For induction of RV diarrhea, 1 × 10^6 PFU of SA11 strain or 10 × DD50 of EDIM strain in 20 µL PBS was orally inoculated using a pipette tip to 7-day-old BALB/c suckling mice regardless of their sexes, as sex has no significant influence on RV diarrhea occurrence. We used a scoring system to evaluate fecal consistency and color as described with some modification ([27]): no stool or brown formed stool (1 point); brown soft stool (2 points); yellow soft stool (3 points); and yellow watery stool (4 points). Mice with scores of ≥2 meant diarrhea occurrence, while mice with scores of 1 meant no diarrhea. At the end of each experiment, all infected or drug-treated suckling mice were humanely euthanized via CO2 asphyxiation.
Seven-day-old BALB/c suckling mice meeting the weight criteria within each litter were randomly assigned to experimental groups. Each litter was allocated to ensure one to three suckling mice per experimental group (variations dependent on the total number of groups). Data from suckling mice assigned to the same group across multiple litters were aggregated to achieve a total sample size of n = 3–6 per experimental group. Then, the suckling mice were orally inoculated with 1 × 10^6 PFU of the SA11 strain or 10 × DD50 of the EDIM strain, or with an equal amount of PBS as mock infection. For SA11 infection, the suckling mice were orally treated once with indicated doses of drugs or with an equal volume of DMSO as control at 2 h p.i. For EDIM infection, the suckling mice were orally treated with 0.2 mg/kg/day NVP-HSP990, 30 mg/kg/day ribavirin, or an equal amount of DMSO as control from 2 days post-infection (d p.i.) to indicated time points. Diarrhea scores and body weight were monitored from day 0 to day 7 post-infection in the SA11 infection model, and from day 0 to day 9 post-diarrhea occurrence (2–11 d p.i.) in the EDIM infection model. Blinding was applied throughout data collection and analysis.
The RV-infected suckling mice were sacrificed by CO2 asphyxiation at the indicated times, and small intestines (including duodenum, jejunum, and ileum) or colon was homogenized in 0.3 mL DMEM, centrifuged at 12,000 × g for 5 min at 4°C, and the supernatant was collected. Virus contents in the supernatant were titrated with PFA as described above. Viral antigens in the supernatant were detected with enzyme-linked immunosorbent assay (ELISA) kits for RV (CUSABIO, China) following the manufacturer’s instructions. For qPCR analysis of RV protein expression, the intestines were longitudinally split and washed in 1 mL DMEM by shaking for 30 s. Then, the tissues were cut into 0.5 cm segments, incubated in Hank’s buffer containing 2.5 mM EDTA-Na2 and 1 mM dithiothreitol (Sangon Biotech, China) at 37°C with rotation at 200 rpm for 30 min, filtered with a 70 µm strainer. Then the epithelial cells were pelleted by centrifugation at 500 × g for 5 min, purified with 20% Percoll (Cytiva, Sweden), and lysed in Trizol for RNA extraction and further qPCR analysis.
The jejunum and ileum of suckling mice were fixed in 4% paraformaldehyde for 24 h, washed with PBS twice, and then subjected to paraffin embedding and slicing at 5 µm thickness. The sections were stained with hematoxylin and eosin (Beyotime, China) and observed with an Olympus BX51 microscope, and the data were processed by CaseViewer 2.4 software. For immunohistochemistry analysis, the fixed tissues were dehydrated in 30% sucrose, embedded in Optimal Cutting Temperature compound, frozen with liquid nitrogen, and cryosliced at 10 µm thickness. […]

## COc1cccc(-c2cc(F)ccc2[C@H]2Cc3nc(N)nc(C)c3C(=O)N2)n1 [NVP-HSP990]
0.2 mg/kg/day NVP-HSP990 vs 30 mg/kg/day ribavirin, oral, 5 days
  therapeutic effect on diarrhea compared to ribavirin: superior therapeutic effect
0.2 mg/kg/day oral for 5 days, observed for another 5 days
  weight gain in EDIM-infected suckling mice: did not adversely affect
0.2 mg/kg/day oral for 5 days, observed for another 5 days, compared to untreated group
  diarrhea scores: significantly reduced
0.2 mg/kg/day oral from 2 d p.i., 3 consecutive days, compared to untreated controls
  foamy degeneration and viral infection in small intestinal epithelial cells: marked reduction
0.2 mg/kg/day oral, 3 days, ELISA, vs untreated or ribavirin-treated (30 mg/kg/day) groups
  RV viral antigens in colonic contents: significantly lower
0.2 mg/kg/day oral, 3 days, qPCR, compared to untreated group
  viral antigen (VP6 and NSP4) expression in intestinal epithelial cells: significantly reduced
